Laboratory results taken from patent US9073858B2, “Methods of targeted drug development” (priority 2010, dated 2015).
Where two headings read alike, the source gives them in different places.

Columns and labels:
EGFR = biological target: T1, EGFR (Homo sapiens, UniProt P00533); assay: EGFR in-cell Western (ICW) screening protocol; format: cell-based; set-up: unit not given here; conditions: for ICW Screen: initial screen
T1 construct: endogenous in cells; host or cells: A431 cells (ATCC CRL-1555)
Protocol: The following example describes general EGFR in-cell Western (ICW) screening protocol.
Two cell plates were prepared for each compound plate.
Serum Starvation: The cells were serum starved prior to compound addition. […] The cell plates were incubated at 37° C./5% CO2 for 2 hours.
Prepared compound plates were stored at RT prior to use and at 4° C. long term.
Compound Dilution Plate Preparation: 250 μl of DMEM supplemented with 1 mg/ml BSA (Sigma A3059-10G) was added to the appropriate wells of a 96 well plate to prepare the compound dilution plates. Using a multichannel pipettor, 1.25 μl of compound from the compound plate was transferred into the compound dilution plate.
Compound Addition: The starve media was removed from the cell plates by aspiration. Using a multichannel pipettor, the compound dilution plates were mixed by pipetting up and down three times. 50 μl of mixed, diluted compound was added to each of two rows/columns on each of two cell plates. The cell plates with compound were incubated at 37° C./5% CO2 for 4 hours.
50 μl of 20 or 0 ng/ml EGF was added to the appropriate wells without the removal of compound. The compound and EGF were mixed by pipetting up and down three times.
The plates were incubated at RT for 20 min without shaking. The Fixation Solution was removed by aspiration and the plates washed four times with 200 μl each of Triton Wash Solution (1×PBS, Sigma P3813-10PK, and 0.1% Triton X-100, T8787-50ML) for 5 min with gentle shaking.
The block was removed by aspiration and 50 μl of diluted primary Ab mix was added. The plates were incubated at 4° C. overnight with gentle shaking. The plates were washed five times with 200 μl of PBST (1×PBS, Sigma P3813-10PK, and 0.1% Tween-20, Sigma P9416-50ML) for 5 min each with shaking. 50 μl of diluted secondary Ab mix was added and the plates incubated at RT for 1 h with shaking. The plates were washed 5× with 200 μl of PBST for 5 min each with shaking. One final wash with 200 μl of PBS (Sigma P3813-10PK) for 5 min with shaking was performed prior to scanning.
In some screening assays, the dilution of the secondary Ab conjugates was 1/800 rather than 1/1200.
Plate Scanning: The plates were scanned on an Odyssey Infrared Imaging System from LI-COR Biosciences. The focus offset was set at 3.5 mm and the scanning intensity set at 3 for the 700 channel and 7 for the 800 channel.
Data Analysis: The % of Maximum and % Inhibition values were calculated as follows. 700 Channel=signal for total EGFR (used to control for variation in cell number). 800 Channel=signal for phosphorylated EGFR. 800−EGF=basal level EGFR phosporylation+non-specific signal (no compound). 800+EGF=800−EGF+EGF dependent EGFR receptor phosphorylation (no compound). 700/800com=700 or 800 channel signals with compound. % Maximum={[(800com/700com)−(800−EGF/700−EGF)]/[(800+EGF/700+EGF)−(800−EGF/700−EGF)]}×100%. % Inhibition=100%−(% Maximum).

[1] = tested on: epithelial carcinoma A431 cell line; assay: MTT Cell Proliferation Assay, A431 cell line; format: cell-based; conditions: for MTT (10 Point follow-up) ratio / MTT-72 h A431/MDBK (ratio): value in brackets; for MTT (10 Point follow-up) ratio: numerically MDBK over A431; for MTT-72 h A431/MDBK (ratio): numerically MDBK value over A431 value; for IC50: Homo sapiens
Source text: (§1) The following example describes the MTT Cell Proliferation Assay.
(§2) The MTT Cell Proliferation Assay is a colorimetric assay system that measures the reduction of the tetrazolium salt MTT (3-(4,5-dimethylthiazol-2-yl)-2,5-diphenyltetrazolium bromide) into insoluble formazan crystals, produced by the mitochondria of viable cells. […] The color can then be quantified by spectrophotometric means. Among the applications for the method are drug sensitivity, cytotoxicity, response to growth factors, and cell activation. The reduction of tetrazolium salts is now recognized as a safe, accurate alternative to radiometric testing.
(§3) Two replicates on each cell plate and 2 duplicate plates gave 4 individual replicates of each concentration, in each cell line. Concentrations were diluted in 100% DMSO from 25 mM stocks.
(§4) Twelve 96 well plates of each cell line were plated. Plating was done by dislodging cells as in passage protocol, counting on a hemocytometer, re-suspending in standard growth media, and plating using a multichannel pippetor.
(§5) 16 μl of 25 mM stock+34 μl DMSO=8 mM starting concentrations, and serial diluted as with test compounds in same plate. […] Two replicates of each concentrations was run on each cell plate. All compound addition and cell treatments were done using aseptic technique under a laminar flow aseptic hood.
(§6) Control: 0.5% DMSO in treatment media was used as the control.
(§7) MTT dye (Thiazolyl Blue Tetrazolium Bromide, Sigma cat # M5655) stock was prepared in bulk and stored at 4° C. for use: 5 mgs/ml sterile PDS, shielded from light. 4 ul of this stock per 100 uls treatment media per well was used.
(§8) Plates were incubated overnight prior to treatment, with treatment day=Day 0. Compound treatments were prepared prior to washing cells to minimize time cells were dry at room temperature after final aspiration. Compounds were diluted in 100% DMSO in 96 well polypropylene plates:40 μl 25 mM stock+10 μl DMSO=20 mM; 20 μl of 20 mM+30 μl DMSO=8 mM; 20 μl of 8 mM+30 μl DMSO=3.2 mM; 20 μl of 3.2 mM+30 μl DMSO=1.3 mM; 20 μl of 1.3 mM+30 μl DMSO=0.51 mM.
(§9) 5.0 μl/ml were added to treatment media, in sterile, 2.2 ml deep well plates=0.5% dmso final. Ten μl of each dmso concentration was added to 2.0 ml of treatment media and then mixed using a 1200 μl multichannel pipettor. Cell plates were treated from the deep well plates. Treatment media was standard growth media containing 0.5% FBS and standard additions. This reduced FBS concentration allowed for a slower growth rate in cells.
(§10) Media was aspirated from cell plates, and washed with 200 μl/well sterile PBS. Aspirated PBS wash, and cell plates were treated with 200 μl of compound/treatment media per well, and incubated at 37° C., 5% CO2 for 3 days.
(§11) Prior to harvesting, visual observations were made under an inverted microscope. Plates were harvested by: aspirating the growth media; adding back MTT dye/100 μl treatment media; and incubating plates at 37° C. for 1 hour. MTT dye was aspirated. 100 μl/well dmso was added, and then shaken on a Bellco plate shaker for 5 minutes, at 4.5 setting.
(§12) Plates were read in a Tecan Sunrize UV plate reader, at 560 nm. Settings: Read mode, Outside Normal 2 sec; Shake settle time 3 sec. Data is reported as % inhibition, calculated for individual plates using control values from that plate.

MDBK line = assay: MTT Cell Proliferation Assay, MDBK line; format: cell-based, bovine; conditions: Bos taurus, MDBK
Source text: as §1, §2, §3, §4, §5, §6, §7, §8, §9, §10, §11, §12

[2] = A-431, 10 point follow-up, first value of pair, read-out: MTT (10 Point follow-up) A431
[3] = A-431, 72 h, 72 h, first value of A431/MDBK pair, read-out: MTT-72 h A431
[4] = 10 point follow-up, second value of pair, read-out: MTT (10 Point follow-up) MDBK
[5] = 72 h, second value of A431/MDBK pair, read-out: MTT-72 h MDBK

T1 sequence (P00533 25-1210): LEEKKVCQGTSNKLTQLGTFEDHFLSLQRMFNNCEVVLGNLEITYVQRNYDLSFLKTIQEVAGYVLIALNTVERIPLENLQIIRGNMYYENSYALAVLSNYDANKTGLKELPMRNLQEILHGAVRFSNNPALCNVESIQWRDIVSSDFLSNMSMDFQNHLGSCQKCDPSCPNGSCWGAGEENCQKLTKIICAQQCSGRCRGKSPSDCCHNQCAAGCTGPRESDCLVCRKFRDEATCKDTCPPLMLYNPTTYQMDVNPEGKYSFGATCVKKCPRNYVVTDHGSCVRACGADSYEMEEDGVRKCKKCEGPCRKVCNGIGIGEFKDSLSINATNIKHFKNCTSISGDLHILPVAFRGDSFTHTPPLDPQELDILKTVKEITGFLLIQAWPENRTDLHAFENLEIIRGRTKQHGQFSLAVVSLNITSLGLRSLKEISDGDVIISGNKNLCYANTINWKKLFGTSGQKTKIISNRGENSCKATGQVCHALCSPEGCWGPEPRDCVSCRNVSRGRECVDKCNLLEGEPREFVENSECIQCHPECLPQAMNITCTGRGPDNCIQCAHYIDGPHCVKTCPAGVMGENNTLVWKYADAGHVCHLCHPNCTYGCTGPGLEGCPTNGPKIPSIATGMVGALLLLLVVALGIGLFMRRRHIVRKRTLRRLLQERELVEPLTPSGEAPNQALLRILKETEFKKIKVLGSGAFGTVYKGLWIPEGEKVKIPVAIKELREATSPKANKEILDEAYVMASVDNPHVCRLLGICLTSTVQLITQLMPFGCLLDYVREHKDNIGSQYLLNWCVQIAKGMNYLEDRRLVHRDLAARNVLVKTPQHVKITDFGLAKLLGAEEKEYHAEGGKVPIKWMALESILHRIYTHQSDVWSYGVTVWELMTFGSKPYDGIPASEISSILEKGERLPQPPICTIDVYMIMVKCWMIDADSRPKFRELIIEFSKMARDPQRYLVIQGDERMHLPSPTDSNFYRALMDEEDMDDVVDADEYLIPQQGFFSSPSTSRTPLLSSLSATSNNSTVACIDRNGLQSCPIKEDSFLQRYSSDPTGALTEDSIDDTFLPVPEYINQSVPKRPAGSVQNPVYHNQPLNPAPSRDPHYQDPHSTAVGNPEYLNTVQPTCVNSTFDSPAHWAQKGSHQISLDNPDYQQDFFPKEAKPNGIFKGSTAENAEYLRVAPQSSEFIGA

| SMILES | ICW Screen (EGFR) | ICW Re-Test (EGFR) | MTT (10 Point follow-up) ratio [1] | MTT-72 h A431/MDBK (ratio) ([1]; 72 h) | IC50 [1, 2] [µM] | IC50 [1, 3] [µM] | IC50 (MDBK line; [4]) [µM] | IC50 (MDBK line; [5]) [µM] |
| --- | --- | --- | --- | --- | --- | --- | --- | --- |
| Oc1c(C(Nc2nccs2)c2cccs2)ccc2cccnc12 (stereo not shown) [compound 10602] | 57.72 | 43.06 | 0.71 | 0.65 | 3.3 | 3.56 | 2.35 | 2.31 |
| CCOc1cc(C(Nc2cccnc2)c2ccc3cccnc3c2O)ccc1O (stereo not shown) [compound 10936] | 37.96 | 57 | – | 1.05 | – | 5.43 | – | 5.68 |
| Cc1ccnc(NC(c2ccc(F)cc2)c2ccc3cccnc3c2O)c1 (stereo not shown) [compound 10522] | 26.6 | – | 1.14 | – | 1.65 | – | 1.89 | – |
| COc1ccc(C(Nc2ccccn2)c2ccc3ccc(C)nc3c2O)cc1C (stereo not shown) [compound 1979] | 27.02 | – | – | 0.95 | – | 5.69 | – | 5.38 |
| Cc1ccnc(NC(c2ccc(Cl)cc2)c2ccc3cccnc3c2O)c1 (stereo not shown) [compound 10481] | 25.82 | – | 1.54 | – | 0.798 | – | 1.23 | – |
| Cc1cccc(NC(c2cccc(C)n2)c2ccc3ccc(C)nc3c2O)n1 (stereo not shown) [compound 10976] | 33.22 | 21.78 | – | 0.78 | – | 25.1 | – | 19.7 |
| Oc1c(C(Nc2ccccn2)c2ccccc2Cl)ccc2cccnc12 (stereo not shown) [compound 10482] | 16.45 | – | 1.28 | – | 0.356 | – | 0.455 | – |
| CCOc1ccc(C(Nc2ccccn2)c2cc(Cl)c3cccnc3c2O)cc1 (stereo not shown) [compound 10953] | 30.86 | 41.04 | – | 1.03 | – | 5.42 | – | 5.56 |
| Cc1ccnc(NC(c2ccc(C(F)(F)F)cc2)c2ccc3cccnc3c2O)c1 (stereo not shown) [compound 10486] | 25.02 | – | 3.07 | 2.76 | 0.275 | 0.29 | 0.844 | 0.8 |
| Oc1c(C(Nc2cccnc2)c2ccc(C(F)(F)F)cc2)ccc2cccnc12 (stereo not shown) [compound 10942] | 56.15 | 95.43 | – | 1.09 | – | 33.3 | – | 36.2 |
| COc1cc(C(Nc2cc(C)ccn2)c2ccc3cccnc3c2O)ccc1O (stereo not shown) [compound 1973] | 54.76 | 53.31 | – | 0.53 | – | 14.2 | – | 7.5 |
| Oc1c(C(Nc2ccccc2)c2ccccn2)ccc2cccnc12 (stereo not shown) [compound 11018] | 25.31 | 21.62 | – | 0.89 | – | 9.11 | – | 8.1 |
| Cc1ccc2ccc(C(Nc3ccccn3)c3ccc(C)c(C)c3)c(O)c2n1 (stereo not shown) [compound 10034] | 27.1 | – | – | 0.60 | – | 12 | – | 7.16 |
| COc1ccc(C(Nc2cc(C)ccn2)c2ccc3cccnc3c2O)cc1O (stereo not shown) [compound 1978] | 63.53 | 41.95 | – | 1.47 | – | 7.3 | – | 10.7 |
| Oc1c(C(Nc2cccnc2)c2cccs2)ccc2cccnc12 (stereo not shown) [compound 10315] | 80.77 | 92.46 | 1.12 | 1.26 | 0.697 | 4.52 | 0.783 | 5.69 |
| Oc1c(C(Nc2ccccn2)c2cccc(Cl)c2Cl)ccc2cccnc12 (stereo not shown) [compound 10051] | 36.47 | – | 1.79 | 1.80 | 0.545 | 0.79 | 0.974 | 1.42 |
